Tested on: Glomerella lagenarium (Colletotrichum lagenarium)
Assay: Glomerella lagenarium (Colletotrichum lagenarium) / liquid culture (anthracnose)
Format: cell-based
Details: Colletotrichum orbiculare, PDB potato dextrose broth, 24° C., 3-4 days after application, read-out: disease control (inhibition of growth measured photometrically)
Method in brief: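 Compound was applied at 200 ppm from DMSO solution, then potato dextrose broth carrying cryostored fungal spores was added. Growth inhibition was measured by photometry after 3-4 days of incubation at 24° C.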
`O=C(OCC(F)F)c1cc2c(cc1Cl)COB2O` [Compound 236] showed an inhibition at 200 ppm of no less than 80%. For `C[Si](C)(C)COC(=O)c1cc2c(cc1F)COB2O` [Compound 429], the inhibition at 200 ppm was no less than 80%.

Tested on: Thanatephorus cucumeris (Rhizoctonia solani)
Assay: Thanatephorus cucumeris (Rhizoctonia solani) / liquid culture (foot rot, damping-off)
Format: cell-based
Details: PDB potato dextrose broth, 24° C., 3-4 days after application, read-out: disease control (inhibition of growth determined photometrically)
Method in brief: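 Photometric growth-inhibition readout taken 3-4 days after application, with cultures incubated at 24 °C. Test compound was applied at 200 ppm from DMSO solution to R. solani mycelial fragments in PDB.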
`COC(=O)C(C)OC(=O)c1cc2c(cc1Cl)COB2O` (stereo not drawn) [Compound 206] showed an inhibition at 200 ppm of no less than 80%. Work on `O=C(OCCc1ccc(Cl)cc1Cl)c1cc2c(cc1F)COB2O` [Compound 370] yielded an inhibition at 200 ppm of no less than 80%. Work on `CCCCCCCCCCOC(=O)c1cc2c(cc1F)COB2O` [Compound 391] yielded an inhibition at 200 ppm of no less than 80%. Work on `C[Si](C)(C)COC(=O)c1cc2c(cc1F)COB2O` [Compound 429] yielded an inhibition at 200 ppm of no less than 80%.

Tested on: Fusarium culmorum
Assay: microbe, parasite or virus in culture
Format: cell-based
Details: read-out: disease control (inhibition of growth determined visually)
In the case of `C[Si](C)(C)COC(=O)c1cc2c(cc1F)COB2O` [Compound 429], the inhibition at 200 ppm is reported as no less than 80%.

Tested on: Gaeumannomyces graminis
Assay: Gaeumannomyces graminis / liquid culture (take-all of cereals)
Format: cell-based
Details: PDB potato dextrose broth, 24° C., 4-5 days after application, read-out: disease control (inhibition of growth determined photometrically)
Method in brief: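 Growth inhibition measured photometrically 4–5 days post-application, following incubation at 24 °C. Test compound, applied from DMSO at 200 ppm, mixed with fungal mycelial fragments in potato dextrose broth.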
In the case of `CCOC(=O)C1CC=CCC1NC(=O)c1cc2c(cc1F)COB2O` (stereo not drawn) [Compound 78], the inhibition at 200 ppm is reported as no less than 80%. Molecule `O=C(NCc1cccc(Cl)c1)c1cc2c(cc1Cl)COB2O` [Compound 85] has an inhibition at 200 ppm of no less than 80%. For `COc1ccc(-c2ccccc2)cc1NC(=O)c1cc2c(cc1Cl)COB2O` [Compound 129], the inhibition at 200 ppm was no less than 80%. Molecule `O=C(OCC(F)F)c1cc2c(cc1Cl)COB2O` [Compound 236] has an inhibition at 200 ppm of no less than 80%. Work on `O=C(OCCc1ccc(Cl)cc1Cl)c1ccc2c(c1)B(O)OC2` [Compound 312] yielded an inhibition at 200 ppm of no less than 80%. With `O=C(OCCc1ccc(Cl)cc1Cl)c1cc2c(cc1F)COB2O` [Compound 370] the inhibition at 200 ppm was no less than 80%. With `CCCCCCCCCCOC(=O)c1cc2c(cc1F)COB2O` [Compound 391] the inhibition at 200 ppm was no less than 80%. For `C[Si](C)(C)COC(=O)c1cc2c(cc1F)COB2O` [Compound 429], the inhibition at 200 ppm was no less than 80%.

Tested on: Monographella nivalis (Microdochium nivale)
Assay: Monographella nivalis (Microdochium nivale) / liquid culture (foot rot cereals)
Format: cell-based
Details: PDB potato dextrose broth, 24° C., 4-5 days after application, read-out: disease control (inhibition of growth determined photometrically)
For `COc1ccc(-c2ccccc2)cc1NC(=O)c1cc2c(cc1Cl)COB2O` [Compound 129], the inhibition at 200 ppm was no less than 80%. Work on `O=C(OCC(F)F)c1cc2c(cc1Cl)COB2O` [Compound 236] yielded an inhibition at 200 ppm of no less than 80%. For `O=C(OCCc1ccc(Cl)cc1Cl)c1ccc2c(c1)B(O)OC2` [Compound 312], the inhibition at 200 ppm was no less than 80%. Work on `O=C(OCCc1ccc(Cl)cc1Cl)c1cc2c(cc1F)COB2O` [Compound 370] yielded an inhibition at 200 ppm of no less than 80%. `C[Si](C)(C)COC(=O)c1cc2c(cc1F)COB2O` [Compound 429] gave an inhibition at 200 ppm of no less than 80%.

Tested on: Plasmopara viticola
Assay: whole plant or invertebrate
Format: in vivo
Details: foliar, read-out: disease control
`O=C(NCc1cccc(Cl)c1)c1cc2c(cc1Cl)COB2O` [Compound 85] gave a pest or weed control at 200 ppm of no less than 80%. `C[Si](C)(C)COC(=O)c1cc2c(cc1F)COB2O` [Compound 429] gave a pest or weed control at 200 ppm of no less than 80%.

Tested on: Pythium ultimum
Assay: Pythium ultimum / liquid culture (seedling damping off)
Format: cell-based
Details: Globisporangium ultimum; 200 ppm; potato dextrose broth, 24° C., 2-3 days after application; read-out: disease control (inhibition of growth determined photometrically)
Molecule `CCOC(=O)C1CC=CCC1NC(=O)c1cc2c(cc1F)COB2O` (stereo not drawn) [Compound 78] has an inhibition at 200 ppm of no less than 80%. `O=C(NCc1cccc(Cl)c1)c1cc2c(cc1Cl)COB2O` [Compound 85] showed an inhibition at 200 ppm of no less than 80%. `COc1ccc(-c2ccccc2)cc1NC(=O)c1cc2c(cc1Cl)COB2O` [Compound 129] gave an inhibition at 200 ppm of no less than 80%. `COC(=O)C(C)OC(=O)c1cc2c(cc1Cl)COB2O` (stereo not drawn) [Compound 206] gave an inhibition at 200 ppm of no less than 80%. Molecule `O=C(OCC(F)F)c1cc2c(cc1Cl)COB2O` [Compound 236] has an inhibition at 200 ppm of no less than 80%. Work on `O=C(OCCc1ccc(Cl)cc1Cl)c1cc2c(cc1F)COB2O` [Compound 370] yielded an inhibition at 200 ppm of no less than 80%. Work on `CCCCCCCCCCOC(=O)c1cc2c(cc1F)COB2O` [Compound 391] yielded an inhibition at 200 ppm of no less than 80%. Molecule `C[Si](C)(C)COC(=O)c1cc2c(cc1F)COB2O` [Compound 429] has an inhibition at 200 ppm of no less than 80%.

Tested on: not given
Assay: not given
Details: not given
For `O=C(NCc1cccc(Cl)c1)c1cc2c(cc1Cl)COB2O` [Compound 85], the melting point was 263 to 265 °C. For `C[Si](C)(C)COC(=O)c1cc2c(cc1F)COB2O` [Compound 429], the melting point was 122 to 124 °C.

Tested on: Mycosphaerella graminicola (Septoria tritici)
Assay: Mycosphaerella graminicola (Septoria tritici) / liquid culture (Septoria blotch)
Format: cell-based
Details: Zymoseptoria tritici, PDB potato dextrose broth, 24° C., 4-5 days after application, read-out: disease control (inhibition of growth determined photometrically)
Method in brief: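 Growth inhibition was read photometrically 4-5 days after application, following incubation at 24° C of fungal conidia in potato dextrose broth over test compound (200 ppm, from DMSO solution) in microtiter plates.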
For `COc1ccc(-c2ccccc2)cc1NC(=O)c1cc2c(cc1Cl)COB2O` [Compound 129], the inhibition at 200 ppm was no less than 80%. Work on `O=C(OCC(F)F)c1cc2c(cc1Cl)COB2O` [Compound 236] yielded an inhibition at 200 ppm of no less than 80%. Work on `O=C(OCCc1ccc(Cl)cc1Cl)c1cc2c(cc1F)COB2O` [Compound 370] yielded an inhibition at 200 ppm of no less than 80%. `C[Si](C)(C)COC(=O)c1cc2c(cc1F)COB2O` [Compound 429] showed an inhibition at 200 ppm of no less than 80%.

Tested on: Mycosphaerella arachidis (Cercospora arachidicola)
Assay: Mycosphaerella arachidis (Cercospora arachidicola) / liquid culture (early leaf spot)
Format: cell-based
Details: PDB potato dextrose broth, 24° C., 4-5 days after application, read-out: disease control (inhibition of growth determined photometrically)
Method in brief: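 Test compound, applied at 200 ppm from DMSO solution, was combined with spore-containing potato dextrose broth. Photometric growth inhibition was scored after 4-5 days at 24° C.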
For `CCCCCCCCCCOC(=O)c1cc2c(cc1F)COB2O` [Compound 391], the inhibition at 200 ppm was no less than 80%.

Tested on: Phytophthora infestans
Assay: whole plant or invertebrate
Format: in vivo
Details: in Solanum lycopersicum, foliar, read-out: disease control
For `CCOC(=O)C1CC=CCC1NC(=O)c1cc2c(cc1F)COB2O` (stereo not drawn) [Compound 78], the pest or weed control at 200 ppm was no less than 80%. In the case of `O=C(NCc1cccc(Cl)c1)c1cc2c(cc1Cl)COB2O` [Compound 85], the pest or weed control at 200 ppm is reported as no less than 80%. `COc1ccc(-c2ccccc2)cc1NC(=O)c1cc2c(cc1Cl)COB2O` [Compound 129] showed a pest or weed control at 200 ppm of no less than 80%. Molecule `COC(=O)C(C)OC(=O)c1cc2c(cc1Cl)COB2O` (stereo not drawn) [Compound 206] has a pest or weed control at 200 ppm of no less than 80%. `O=C(OCC(F)F)c1cc2c(cc1Cl)COB2O` [Compound 236] gave a pest or weed control at 200 ppm of no less than 80%.

Tested on: Puccinia recondita f. sp. tritici
Assay: Puccinia recondita f. sp. tritici / wheat / leaf disc preventative (brown rust)
Format: in vivo
Details: foliar, wheat leaf segments cv Kanzler, inoculated 1 day after application, assessed 7-9 days after application, read-out: disease control
Description: 3. Puccinia recondita f. sp. tritici/Wheat/Leaf Disc Preventative (Brown Rust): Wheat leaf segments cultivated variety (cv) Kanzler were placed on agar in 24-well plates and sprayed with formulated test compound diluted in water at an application rate of 200 ppm. The leaf disks were inoculated with a spore suspension of the fungus 1 day after application.
For `O=C(OCCc1ccc(Cl)cc1Cl)c1ccc2c(c1)B(O)OC2` [Compound 312], the pest or weed control at 200 ppm was no less than 80%. With `O=C(OCCc1ccc(Cl)cc1Cl)c1cc2c(cc1F)COB2O` [Compound 370] the pest or weed control at 200 ppm was no less than 80%. `CCCCCCCCCCOC(=O)c1cc2c(cc1F)COB2O` [Compound 391] gave a pest or weed control at 200 ppm of no less than 80%.
